From patent US20250250269A1, “HETEROCYCLIC GLP-1 AGONISTS” (Gasherbrum Bio, Inc., priority 2022, published 2025)

target: T1, GLP-1 Receptor (Homo sapiens, UniProt P43220); test: GLP-1R agonist cAMP stimulation assay (HEK293/GLP1R/CRE-LUC cells, Cisbio cAMP dynamic 2 kit); format: cell-based; conditions: HEK293/CRE-Luc cells stably expressing the GLP-1 Receptor, 30 min at 37° C.
T1 construct: host or cells: HEK293/CRE-Luc (HEK293/GLP1R/CRE-LUC)
Description: Activation of GLP-1 receptor is known to stimulate cyclic AMP (cAMP) production in cells which indicates primary coupling to the Gas subunit of the G protein heterotrimeric complex.
To optimize functional activity directed toward Gas coupling, a HEK293/CRE-Luc cell line developed by HDB stably expressing the GLP-1 Receptor was used. 200× concentration of compound working solutions were prepared (Agilent Technologies Bravo) with ½ log serial dilution in 384-well Echo LDV plate (Labcyte, Cat #LP-0200). […] 200× concentration of compound working solutions were moved to 384-well white low volume plate (Greiner, Cat #784075) using Labcyte ECHO550. 1×10^5 cells/mL HEK293/GLP1R/CRE-LUC (HD Biosciences) cell suspensions prepared with assay buffer [DPBS containing 0.5 mM IBMX (Sigma, Cat #15879) and 0.1% BSA (GENVIEW, Cat #FA016-100g)], 10 μL cell suspensions were added to each well of previous generated assay plate which already contains […] compound at 200×concentration using ThermoFisher Multidrop Combi (1000 cells/well). Seal the plate and incubate at 37° C. with 5% CO2 for 30 min.
After incubation the cAMP assay signal was generated using cAMP dynamic 2 Kit (Cisbio). 5 μL cAMP-d2 working solution was added to each well, followed with 5 μL Anti-cAMP antibody-cryptate working solution added to each well using ThermoFisher Multidrop Combi. Incubate at room temperature for 1 hour protected from light. Read the fluorescence at 665 and 615 nm with Reader PerkinElmer EnVision.

T1 sequence (P43220 24-463, species assumed): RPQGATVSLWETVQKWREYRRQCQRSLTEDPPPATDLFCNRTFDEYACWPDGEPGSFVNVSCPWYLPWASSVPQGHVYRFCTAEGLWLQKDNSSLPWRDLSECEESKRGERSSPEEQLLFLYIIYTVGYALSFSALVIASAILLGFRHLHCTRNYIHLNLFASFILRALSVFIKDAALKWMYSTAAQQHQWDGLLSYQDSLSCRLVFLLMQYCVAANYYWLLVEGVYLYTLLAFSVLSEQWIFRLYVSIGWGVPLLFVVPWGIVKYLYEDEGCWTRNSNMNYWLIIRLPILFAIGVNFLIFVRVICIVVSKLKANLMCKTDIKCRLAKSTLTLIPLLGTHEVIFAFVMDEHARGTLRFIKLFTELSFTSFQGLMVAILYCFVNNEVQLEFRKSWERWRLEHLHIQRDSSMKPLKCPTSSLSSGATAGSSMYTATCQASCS

EC50, < 1 nM:
Fc1cc(Cl)ccc1COc1cccc([C@H]2CCN(Cc3nc4cc(-c5nnc(C(F)(F)F)[nH]5)ncc4n3C[C@@H]3CCO3)C[C@@H]2F)n1 (single isomer, unassigned) [Compound 58]
Fc1cc(Cl)ccc1COc1cccc([C@@H]2CCN(Cc3nc4cc(-c5nnc(C(F)(F)F)[nH]5)ncc4n3C[C@@H]3CCO3)C[C@H]2F)n1 (single isomer, unassigned) [Compound 59]
C[C@]1(c2ccc(Cl)cn2)Oc2cccc([C@H]3CCN(Cc4nc5cc(-c6nnc(C(F)(F)F)[nH]6)cnc5n4C[C@@H]4CCO4)C[C@@H]3F)c2O1 (single isomer, unassigned) [Compound 60]
C[C@]1(c2ccc(Cl)cn2)Oc2cccc([C@@H]3CCN(Cc4nc5cc(-c6nnc(C(F)(F)F)[nH]6)cnc5n4C[C@@H]4CCO4)C[C@H]3F)c2O1 (single isomer, unassigned) [Compound 61]
C[C@]1(c2ccc(Cl)cn2)Oc2cccc([C@H]3CCN(Cc4nc5cc(-c6nnc(C(F)(F)F)[nH]6)ncc5n4C[C@@H]4CCO4)C[C@@H]3F)c2O1 (single isomer, unassigned) [Compound 62]
C[C@]1(c2ccc(Cl)cn2)Oc2cccc([C@@H]3CCN(Cc4nc5cc(-c6nnc(C(F)(F)F)[nH]6)ncc5n4C[C@@H]4CCO4)C[C@H]3F)c2O1 (single isomer, unassigned) [Compound 63]
Fc1ccc(COc2cccc(C3CCN(Cc4nc5cc(-c6nnc(C(F)(F)F)[nH]6)ncc5n4C[C@@H]4CCO4)CC3)n2)c(F)c1 [Compound 1, 2-[(2,4-difluorophenyl)methoxy]-6-{1-[(3-{[(2S)-oxetan-2-yl]methyl}-6-[5-(trifluoromethyl)-4H-1,2,4-triazol-3-yl]-3H-imidazo[4,5-c]pyridin-2-yl)methyl]piperidin-4-yl}pyridine]
COc1cc(Cl)ccc1COc1cccc(C2CCN(Cc3nc4cc(-c5nnc(C(F)(F)F)[nH]5)ncc4n3C[C@@H]3CCO3)CC2)n1 [Compound 2, (S)-2-((4-(6-((4-chloro-2-methoxybenzyl)oxy)pyridin-2-yl)piperidin-1-yl)methyl)-3-(oxetan-2-ylmethyl)-6-(5-(trifluoromethyl)-4H-1,2,4-triazol-3-yl)-3H-imidazo[4,5-c]pyridine]
COc1c(F)ccc(COc2cccc(C3CCN(Cc4nc5cc(-c6nnc(C(F)(F)F)[nH]6)ncc5n4C[C@@H]4CCO4)CC3)n2)c1F [Compound 3, (S)-2-((4-(6-((2,4-difluoro-3-methoxybenzyl)oxy)pyridin-2-yl)piperidin-1-yl)methyl)-3-(oxetan-2-ylmethyl)-6-(5-(trifluoromethyl)-4H-1,2,4-triazol-3-yl)-3H-imidazo[4,5-c]pyridine]
Cc1c(Cl)ccc(COc2cccc(C3CCN(Cc4nc5cc(-c6nnc(C(F)(F)F)[nH]6)ncc5n4C[C@@H]4CCO4)CC3)n2)c1F [Compound 4, 2-[(4-chloro-2-fluoro-3-methylphenyl)methoxy]-6-{1-[(3-{[(2S)-oxetan-2-yl]methyl}-6-[5-(trifluoromethyl)-4H-1,2,4-triazol-3-yl]-3H-imidazo[4,5-c]pyridin-2-yl)methyl]piperidin-4-yl}pyridine]
Cc1c(F)ccc(COc2cccc(C3CCN(Cc4nc5cc(-c6nnc(C(F)(F)F)[nH]6)ncc5n4C[C@@H]4CCO4)CC3)n2)c1F [Compound 5, 2-[(2,4-difluoro-3-methylphenyl)methoxy]-6-{1-[(3-{[(2S)-oxetan-2-yl]methyl}-6-[5-(trifluoromethyl)-4H-1,2,4-triazol-3-yl]-3H-imidazo[4,5-c]pyridin-2-yl)methyl]piperidin-4-yl}pyridine]
Fc1cc(Cl)cc(F)c1COc1cccc(C2CCN(Cc3nc4cc(-c5nnc(C(F)(F)F)[nH]5)ncc4n3C[C@@H]3CCO3)CC2)n1 [Compound 6, (S)-2-((4-(6-((4-chloro-2,6-difluorobenzyl)oxy)pyridin-2-yl)piperidin-1-yl)methyl)-3-(oxetan-2-ylmethyl)-6-(5-(trifluoromethyl)-4H-1,2,4-triazol-3-yl)-3H-imidazo[4,5-c]pyridine]
FC(F)Oc1ccc(COc2cccc(C3CCN(Cc4nc5cc(-c6nnc(C(F)(F)F)[nH]6)ncc5n4C[C@@H]4CCO4)CC3)n2)cn1 [Compound 7, 2-{[6-(difluoromethoxy)pyridin-3-yl]methoxy}-6-{1-[(3-{[(2S)-oxetan-2-yl]methyl}-6-[5-(trifluoromethyl)-4H-1,2,4-triazol-3-yl]-3H-imidazo[4,5-c]pyridin-2-yl)methyl]piperidin-4-yl}pyridine]
FC(F)Oc1cc(COc2cccc(C3CCN(Cc4nc5cc(-c6nnc(C(F)(F)F)[nH]6)ncc5n4C[C@@H]4CCO4)CC3)n2)ccn1 [Compound 8, (S)-2-((4-(6-((2-(difluoromethoxy)pyridin-4-yl)methoxy)pyridin-2-yl)piperidin-1-yl)methyl)-3-(oxetan-2-ylmethyl)-6-(5-(trifluoromethyl)-4H-1,2,4-triazol-3-yl)-3H-imidazo[4,5-c]pyridine]
FC(F)Oc1cccc(COc2cccc(C3CCN(Cc4nc5cc(-c6nnc(C(F)(F)F)[nH]6)ncc5n4C[C@@H]4CCO4)CC3)n2)n1 [Compound 9, (S)-2-((4-(6-((6-(difluoromethoxy)pyridin-2-yl)methoxy)pyridin-2-yl)piperidin-1-yl)methyl)-3-(oxetan-2-ylmethyl)-6-(5-(trifluoromethyl)-4H-1,2,4-triazol-3-yl)-3H-imidazo[4,5-c]pyridine]
FC(F)(F)Oc1cccc(COc2cccc(C3CCN(Cc4nc5cc(-c6nnc(C(F)(F)F)[nH]6)ncc5n4C[C@@H]4CCO4)CC3)n2)n1 [Compound 10, (S)-3-(oxetan-2-ylmethyl)-2-((4-(6-((6-(trifluoromethoxy)pyridin-2-yl)methoxy)pyridin-2-yl)piperidin-1-yl)methyl)-6-(5-(trifluoromethyl)-4H-1,2,4-triazol-3-yl)-3H-imidazo[4,5-c]pyridine]
FC(F)(F)Oc1cccc(COc2cccc(C3CCN(Cc4nc5cc(-c6nnc(C(F)(F)F)[nH]6)ncc5n4C[C@@H]4CCO4)CC3)n2)c1 [Compound 11, (S)-3-(oxetan-2-ylmethyl)-2-((4-(6-((3-(trifluoromethoxy)benzyl)oxy)pyridin-2-yl)piperidin-1-yl)methyl)-6-(5-(trifluoromethyl)-4H-1,2,4-triazol-3-yl)-3H-imidazo[4,5-c]pyridine]
Cc1ccc(COc2cccc(C3CCN(Cc4nc5cc(-c6nnc(C(F)(F)F)[nH]6)ncc5n4C[C@@H]4CCO4)CC3)n2)nc1OC(F)F [Compound 12, (S)-2-((4-(6-((6-(difluoromethoxy)-5-methylpyridin-2-yl)methoxy)pyridin-2-yl)piperidin-1-yl)methyl)-3-(oxetan-2-ylmethyl)-6-(5-(trifluoromethyl)-4H-1,2,4-triazol-3-yl)-3H-imidazo[4,5-c]pyridine]
FC(F)Oc1nc(COc2cccc(C3CCN(Cc4nc5cc(-c6nnc(C(F)(F)F)[nH]6)ncc5n4C[C@@H]4CCO4)CC3)n2)ccc1Cl [Compound 13, (S)-2-((4-(6-((5-chloro-6-(difluoromethoxy)pyridin-2-yl)methoxy)pyridin-2-yl)piperidin-1-yl)methyl)-3-(oxetan-2-ylmethyl)-6-(5-(trifluoromethyl)-4H-1,2,4-triazol-3-yl)-3H-imidazo[4,5-c]pyridine]
Fc1ccc(COc2cccc(C3CCN(Cc4nc5cc(-c6nnc(C(F)(F)F)[nH]6)ncc5n4C[C@@H]4CCO4)CC3)n2)nc1OC(F)F [Compound 14, (S)-2-((4-(6-((6-(difluoromethoxy)-5-fluoropyridin-2-yl)methoxy)pyridin-2-yl)piperidin-1-yl)methyl)-3-(oxetan-2-ylmethyl)-6-(5-(trifluoromethyl)-4H-1,2,4-triazol-3-yl)-3H-imidazo[4,5-c]pyridine]
Cc1ccc(COc2cccc(C3CCN(Cc4nc5cc(-c6nnc(C(F)(F)F)[nH]6)ncc5n4C[C@@H]4CCO4)CC3)n2)c(OC(F)F)n1 [Compound 15, (S)-2-((4-(6-((2-(difluoromethoxy)-6-methylpyridin-3-yl)methoxy)pyridin-2-yl)piperidin-1-yl)methyl)-3-(oxetan-2-ylmethyl)-6-(5-(trifluoromethyl)-4H-1,2,4-triazol-3-yl)-3H-imidazo[4,5-c]pyridine]
FC(F)(F)c1nnc(-c2cc3nc(CN4CCC(c5cccc(OCc6ccc(Cl)c7c6OCO7)n5)CC4)n(C[C@@H]4CCO4)c3cn2)[nH]1 [Compound 16, (S)-2-((4-(6-((7-chlorobenzo[d][1,3]dioxol-4-yl)methoxy)pyridin-2-yl)piperidin-1-yl)methyl)-3-(oxetan-2-ylmethyl)-6-(5-(trifluoromethyl)-4H-1,2,4-triazol-3-yl)-3H-imidazo[4,5-c]pyridine]
